17 compounds from patent publication US9346815B2, “5-chloro-2-difluoromethoxyphenyl pyrazolopyrimidine compounds, compositions and methods of use thereof” (Genentech, Inc., priority 2014, dated 2016) can be followed below.

The target in assay [1] is isolated recombinant JAK1 kinase domain (Homo sapiens (Human), UniProt P23458). The assay can be described thus: JAK1 enzyme assay (Caliper LabChip, peptide phosphorylation). Format: biochemical. The following applies: isolated recombinant JAK1 kinase domain, 25 μM ATP.
For assay [2], the target named is isolated recombinant JAK2 kinase domain (Homo sapiens (Human), UniProt O60674). The assay is described as follows: JAK2 enzyme assay (Caliper LabChip, peptide phosphorylation). Format: biochemical. The following applies: 25 μM ATP.
The test system of assay [3] is JAK1-dependent STAT6 phosphorylation downstream of IL-13 stimulation in TF-1 human erythroleukemia cells. The assay is described as follows: JAK1 pathway assay in TF-1 cells (IL-13-pSTAT6, MSD). The following applies: read-out: IL13-pSTAT6 EC50_TF-1. Format: cell-based. An outline of the steps: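 Inhibitors were added to TF-1 cells (GM-CSF-starved, serum-free) for 30 min or to BEAS-2B cells (complete medium) for 1 hr at 37° C. MSD detected pSTAT6.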

As a reminder, the Ki is a measure of affinity in units of concentration, obtained from inhibition or displacement.

Each structure is given as a SMILES string. Read-outs that look alike come from different tables or passages of the source.

Chain of isolated recombinant JAK1 kinase domain (P23458 875-1153): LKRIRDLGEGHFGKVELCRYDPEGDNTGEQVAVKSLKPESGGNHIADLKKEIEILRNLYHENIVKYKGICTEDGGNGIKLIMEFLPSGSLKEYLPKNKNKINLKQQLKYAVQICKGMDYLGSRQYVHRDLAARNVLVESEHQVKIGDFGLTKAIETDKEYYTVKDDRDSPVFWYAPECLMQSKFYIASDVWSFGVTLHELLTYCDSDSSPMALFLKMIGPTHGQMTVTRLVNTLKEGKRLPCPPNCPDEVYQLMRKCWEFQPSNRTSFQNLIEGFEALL
Chain of isolated recombinant JAK2 kinase domain (O60674 849-1124): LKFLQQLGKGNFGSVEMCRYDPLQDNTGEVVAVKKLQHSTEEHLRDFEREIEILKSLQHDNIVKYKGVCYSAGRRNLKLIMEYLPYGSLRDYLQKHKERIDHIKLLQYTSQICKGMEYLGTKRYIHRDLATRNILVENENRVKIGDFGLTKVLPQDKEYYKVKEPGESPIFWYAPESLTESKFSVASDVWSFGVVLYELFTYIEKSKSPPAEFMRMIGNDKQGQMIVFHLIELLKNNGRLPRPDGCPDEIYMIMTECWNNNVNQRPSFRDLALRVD

Turning to `CN1CCC2CN(C(=O)Cn3cc(NC(=O)c4cnn5cccnc45)c(-c4cc(Cl)ccc4OC(F)F)n3)CCC21` (stereo not drawn) [Example 29, N-[3-[5-chloro-2-(difluoromethoxy)phenyl]-1-[2-(1-methyl-3,3a,4,6,7,7a-hexahydro-2H-pyrrolo[3,2-c]pyridin-5-yl)-2-oxo-ethyl]pyrazol-4-yl]pyrazolo[1,5-a]pyrimidine-3-carboxamide], the Ki amounted to 1.01 nM in assay [1] and 1.76 nM in assay [2]. Further, the EC50 in assay [3] (Homo sapiens, TF-1, TF-1 cells) was found to be 5.6 nM.

For the compound `CS(=O)(=O)CCN1C[C@@H]2CN(C(=O)Cn3cc(NC(=O)c4cnn5cccnc45)c(-c4cc(Cl)ccc4OC(F)F)n3)C[C@@H]2C1` [Example 31, N-[1-[2-[(3aS,6aR)-2-(2-methylsulfonylethyl)-1,3,3a,4,6,6a-hexahydropyrrolo[3,4-c]pyrrol-5-yl]-2-oxo-ethyl]-3-[5-chloro-2-(difluoromethoxy)phenyl]pyrazol-4-yl]pyrazolo[1,5-a]pyrimidine-3-carboxamide], the Ki in assay [1] was found to be 0.37 nM; in assay [2] it was 0.53 nM. Moreover, in assay [3] (Homo sapiens, TF-1, TF-1 cells), the EC50 came out at 102 nM.

Consider `O=C(Nc1cn(CC(=O)N2C[C@H]3CN(CCCN4CCOC4=O)C[C@H]3C2)nc1-c1cc(Cl)ccc1OC(F)F)c1cnn2cccnc12` [Example 32, N-[1-[2-[(3aS,6aR)-2-[3-(2-oxooxazolidin-3-yl)propyl]-1,3,3a,4,6,6a-hexahydropyrrolo[3,4-c]pyrrol-5-yl]-2-oxo-ethyl]-3-[5-chloro-2-(difluoromethoxy)phenyl]pyrazol-4-yl]pyrazolo[1,5-a]pyrimidine-3-carboxamide], for which the Ki stood at 0.46 nM in assay [1] and 0.5 nM in assay [2]. For the same compound, the EC50 in assay [3] (Homo sapiens, TF-1, TF-1 cells) came to 98.5 nM.

Consider `O=C(Nc1cn(CC(=O)N2C[C@H]3CN(CC4CCN(C(=O)C5CCOCC5)CC4)C[C@H]3C2)nc1-c1cc(Cl)ccc1OC(F)F)c1cnn2cccnc12` [Example 35, N-[1-[2-[(3aR,6aS)-2-[[1-(tetrahydropyran-4-carbonyl)-4-piperidyl]methyl]-1,3,3a,4,6,6a-hexahydropyrrolo[3,4-c]pyrrol-5-yl]-2-oxo-ethyl]-3-[5-chloro-2-(difluoromethoxy)phenyl]pyrazol-4-yl]pyrazolo[1,5-a]pyrimidine-3-carboxamide], for which the inhibition constant (Ki) in assay [1] amounted to 0.51 nM; in assay [2] it was 0.73 nM. The EC50 in assay [3] (Homo sapiens, TF-1, TF-1 cells) is 235 nM.

With `CN1C[C@@H]2[C@H](C1)[C@H](CO)N(C(=O)Cn1cc(NC(=O)c3cnn4cccnc34)c(-c3cc(Cl)ccc3OC(F)F)n1)[C@@H]2c1ccccc1` [Example 37, N-[1-[2-[(3aS,4S,6R,6aR)-6-(hydroxymethyl)-2-methyl-4-phenyl-1,3,3a,4,6,6a-hexahydropyrrolo[3,4-c]pyrrol-5-yl]-2-oxo-ethyl]-3-[5-chloro-2-(difluoromethoxy)phenyl]pyrazol-4-yl]pyrazolo[1,5-a]pyrimidine-3-carboxamide], the Ki is 1.1 nM in assay [1] and 0.78 nM in assay [2]. Also, in assay [3] (Homo sapiens, TF-1, TF-1 cells), the EC50 was 11.8 nM.

For `COCCCN1C[C@@H]2CN(C(=O)Cn3cc(NC(=O)c4cnn5cccnc45)c(-c4cc(Cl)ccc4OC(F)F)n3)C[C@@H]2C1` [Example 38, N-[1-[2-[(3aR,6aS)-2-(3-methoxypropyl)-1,3,3a,4,6,6a-hexahydropyrrolo[3,4-c]pyrrol-5-yl]-2-oxo-ethyl]-3-[5-chloro-2-(difluoromethoxy)phenyl]pyrazol-4-yl]pyrazolo[1,5-a]pyrimidine-3-carboxamide], the Ki in assay [1] turned out to be 0.88 nM; in assay [2], 0.78 nM. Also, the EC50 in assay [3] (Homo sapiens, TF-1, TF-1 cells) amounted to 8.5 nM.

As for `CC1(CN2C[C@@H]3CN(C(=O)Cn4cc(NC(=O)c5cnn6cccnc56)c(-c5cc(Cl)ccc5OC(F)F)n4)C[C@@H]3C2)COC1` [Example 39, N-[1-[2-[(3aR,6aS)-2-[(3-methyloxetan-3-yl)methyl]-1,3,3a,4,6,6a-hexahydropyrrolo[3,4-c]pyrrol-5-yl]-2-oxo-ethyl]-3-[5-chloro-2-(difluoromethoxy)phenyl]pyrazol-4-yl]pyrazolo[1,5-a]pyrimidine-3-carboxamide], the Ki worked out at 0.55 nM in assay [1] and 0.87 nM in assay [2]. For the same compound, the EC50 in assay [3] (Homo sapiens, TF-1, TF-1 cells) amounted to 6.6 nM.

In the case of `CN1CC[C@@H]2CN(C(=O)Cn3cc(NC(=O)c4cnn5cccnc45)c(-c4cc(Cl)ccc4OC(F)F)n3)CC[C@@H]21` [Example 41, N-[1-[2-[(3aR,7aS)-1-methyl-3,3a,4,6,7,7a-hexahydro-2H-pyrrolo[3,2-c]pyridin-5-yl]-2-oxo-ethyl]-3-[5-chloro-2-(difluoromethoxy)phenyl]pyrazol-4-yl]pyrazolo[1,5-a]pyrimidine-3-carboxamide], the inhibitory constant (Ki) in assay [1] was determined as 0.91 nM; in assay [2], 1.47 nM. In addition, the EC50 in assay [3] (Homo sapiens, TF-1, TF-1 cells) worked out at 8 nM.

In the case of `CN1CC[C@H]2CN(C(=O)Cn3cc(NC(=O)c4cnn5cccnc45)c(-c4cc(Cl)ccc4OC(F)F)n3)CC[C@H]21` [Example 42, N-[1-[2-[(3aS,7aR)-1-methyl-3,3a,4,6,7,7a-hexahydro-2H-pyrrolo[3,2-c]pyridin-5-yl]-2-oxo-ethyl]-3-[5-chloro-2-(difluoromethoxy)phenyl]pyrazol-4-yl]pyrazolo[1,5-a]pyrimidine-3-carboxamide], the Ki in assay [1] came out at 0.69 nM; in assay [2] it was 0.67 nM. Besides, the EC50 in assay [3] (Homo sapiens, TF-1, TF-1 cells) amounted to 3.1 nM.

On to `CN1C[C@H]2CN(C(=O)Cn3cc(NC(=O)c4cnn5cccnc45)c(-c4cc(Cl)ccc4OC(F)F)n3)C[C@@]2(c2ccccc2)C1` [Example 43, N-[1-[2-[(3aS,6aS)-2-methyl-3a-phenyl-3,4,6,6a-tetrahydro-1H-pyrrolo[3,4-c]pyrrol-5-yl]-2-oxo-ethyl]-3-[5-chloro-2-(difluoromethoxy)phenyl]pyrazol-4-yl]pyrazolo[1,5-a]pyrimidine-3-carboxamide], for which the Ki was found to be 0.66 nM in assay [1] and 0.36 nM in assay [2]. For the same compound, the EC50 in assay [3] (Homo sapiens, TF-1, TF-1 cells) is 15 nM.

For the compound `CN1C[C@@H]2CN(C(=O)Cn3cc(NC(=O)c4cnn5cccnc45)c(-c4cc(Cl)ccc4OC(F)F)n3)C[C@]2(c2ccccc2)C1` [Example 44, N-[1-[2-[(3aR,6aR)-2-methyl-3a-phenyl-3,4,6,6a-tetrahydro-1H-pyrrolo[3,4-c]pyrrol-5-yl]-2-oxo-ethyl]-3-[5-chloro-2-(difluoromethoxy)phenyl]pyrazol-4-yl]pyrazolo[1,5-a]pyrimidine-3-carboxamide], the inhibitory constant (Ki) in assay [1] came to 0.54 nM; in assay [2] it was 0.22 nM. In assay [3] (TF-1 cells), the EC50 was 6.7 nM.

Take `O=C(Nc1cn(CC(=O)N2C[C@H]3CN(CC4(O)CCCCC4)C[C@H]3C2)nc1-c1cc(Cl)ccc1OC(F)F)c1cnn2cccnc12` [Example 46, N-[1-[2-[(3aS,6aR)-2-[(1-hydroxycyclohexyl)methyl]-1,3,3a,4,6,6a-hexahydropyrrolo[3,4-c]pyrrol-5-yl]-2-oxo-ethyl]-3-[5-chloro-2-(difluoromethoxy)phenyl]pyrazol-4-yl]pyrazolo[1,5-a]pyrimidine-3-carboxamide]: the Ki is 0.58 nM in assay [1] and 0.7 nM in assay [2]. Further, the EC50 in assay [3] (Homo sapiens, TF-1, TF-1 cells) was 8.2 nM.

Turning to `N#CC1(CN2C[C@@H]3CN(C(=O)Cn4cc(NC(=O)c5cnn6cccnc56)c(-c5cc(Cl)ccc5OC(F)F)n4)C[C@@H]3C2)CCCCC1` [Example 47, N-[1-[2-[(3aS,6aR)-2-[(1-cyanocyclohexyl)methyl]-1,3,3a,4,6,6a-hexahydropyrrolo[3,4-c]pyrrol-5-yl]-2-oxo-ethyl]-3-[5-chloro-2-(difluoromethoxy)phenyl]pyrazol-4-yl]pyrazolo[1,5-a]pyrimidine-3-carboxamide], the values for the Ki in assay [1] and in assay [2] were 0.33 nM and 0.54 nM, respectively. Also, the EC50 in assay [3] (Homo sapiens, TF-1, TF-1 cells) worked out at 11 nM.

With `CN1CC[C@@H]2CN(C(=O)Cn3cc(NC(=O)c4cnn5cccnc45)c(-c4cc(Cl)ccc4OC(F)F)n3)C[C@@H]2C1` [Example 49, N-[1-[2-[(3aS,7aS)-5-methyl-3,3a,4,6,7,7a-hexahydro-1H-pyrrolo[3,4-c]pyridin-2-yl]-2-oxo-ethyl]-3-[5-chloro-2-(difluoromethoxy)phenyl]pyrazol-4-yl]pyrazolo[1,5-a]pyrimidine-3-carboxamide], the Ki in assay [1] was 0.5 nM; in assay [2] it was 0.96 nM. The EC50 in assay [3] (Homo sapiens, TF-1, TF-1 cells) amounted to 11.3 nM.

As to `CC(C)(O)CCN1C[C@@H]2CN(C(=O)Cn3cc(NC(=O)c4cnn5cccnc45)c(-c4cc(Cl)ccc4OC(F)F)n3)C[C@@H]2C1` [Example 50, N-[1-[2-[(3aR,6aS)-2-(3-hydroxy-3-methyl-butyl)-1,3,3a,4,6,6a-hexahydropyrrolo[3,4-c]pyrrol-5-yl]-2-oxo-ethyl]-3-[5-chloro-2-(difluoromethoxy)phenyl]pyrazol-4-yl]pyrazolo[1,5-a]pyrimidine-3-carboxamide], the results for the Ki in assay [1] and in assay [2] were 0.99 nM and 0.74 nM, respectively. Also, in assay [3] (Homo sapiens, TF-1, TF-1 cells), the EC50 came out at 32 nM.

As for `O=C(Nc1cn(CC(=O)N2C[C@H]3CN(CCCOC(=O)N4CCOCC4)C[C@H]3C2)nc1-c1cc(Cl)ccc1OC(F)F)c1cnn2cccnc12` [Example 51, 3-[(3aR,6aS)-5-[2-[3-[5-chloro-2-(difluoromethoxy)phenyl]-4-(pyrazolo[1,5-a]pyrimidine-3-carbonylamino)pyrazol-1-yl]acetyl]-1,3,3a,4,6,6a-hexahydropyrrolo[3,4-c]pyrrol-2-yl]propyl morpholine-4-carboxylate], the inhibition constant Ki in assay [1] was 1.09 nM; in assay [2], 1.06 nM. In assay [3] (Homo sapiens, TF-1, TF-1 cells), the EC50 was 77.9 nM.

As to `CN1CC[C@H]2CN(C(=O)Cn3cc(NC(=O)c4cnn5cccnc45)c(-c4cc(Cl)ccc4OC(F)F)n3)C[C@H]2C1` [Example 53, N-[1-[2-[(3aR,7aR)-5-methyl-3,3a,4,6,7,7a-hexahydro-1H-pyrrolo[3,4-c]pyridin-2-yl]-2-oxo-ethyl]-3-[5-chloro-2-(difluoromethoxy)phenyl]pyrazol-4-yl]pyrazolo[1,5-a]pyrimidine-3-carboxamide], the values for the Ki in assay [1] and in assay [2] were 0.61 nM and 1.22 nM, respectively. For the same compound, the EC50 in assay [3] (Homo sapiens, TF-1, TF-1 cells) came to 10.9 nM.
